Measurements: patent publication US20070021451A1, “Method for preventing or treating neurologic damage after spinal cord injury” (HAMAMATSU UNIVERSITY SCHOOL OF MEDICINE, priority 2005, published 2007)

How the values were obtained:
[1] = system: Rabbit Model of Spinal Cord Ischemia; assay: Infarct size of spinal cords by TTC staining; type: in vivo, New Zealand White rabbits; conditions: for Infarct size as a percentage of the area of the whole gray matter: mid lumbar, 48 hours after spinal cord ischemia, control 54.7±19.8%
Description: Twenty-six male New Zealand White rabbits weighting 2.2 to 3.0 kg were used in this experiment. Spinal cord ischemia was induced by occluding the abdominal aorta with […] for 20 minutes just distal to the renal arteries. Surgical preparation was conducted according to the method described in the literature, Terada H. et. al., J. Thorac. Cardiovasc. Surg. 2001; 122: 979-85. A 24-gauge venous catheter was placed in the marginal ear vein for drug administration. The rabbits were anesthetized with intravenous sodium pentobarbital (25 mg/kg) and allowed to breathe spontaneously. Lidocaine (0.5%) was administered at the site of the skin incision as local anesthesia. The left common carotid artery was cannulated with a 24-gauge catheter for monitoring the arterial pressure. Core body temperature was continuously monitored with a rectal probe and was maintained at 38.5° C. with the aid of heating lamp. The infrarenal abdominal aorta was exposed through a transperitoneal approach. After systemic heparinization (200 U/kg), spinal cord ischemia was induced by occluding the abdominal aorta with […] for 20 minutes just distal to the renal arteries and just above the aortic bifurcation. Then, the […] released, and the flank was closed. […] The rabbits were assigned randomly to 1 of the 4 groups and subjected to the treatment of (1) above in the following manner. The sham group (n=3) underwent the same operation without aortic occlusion. The control group (n=7) received saline (1 ml) intravenously 15 minutes before aortic occlusion. NS-7 (1 mg/kg) was administered intravenously as a bolus dose 15 minutes before aortic occlusion in group A (n=8) or just after releasing the […] onset of reperfusion) in group B (n=8). All animals were killed by means of a lethal injection of pentobarbital (200 mg/kg) 48 hours after operation. […] The area of infarction was calculated with National Institutes of Health Image software. The infarct size was expressed as a percentage of the area of the whole gray matter. […]

[2] = Physiologic parameters (body weight, rectal temperature, mean arterial blood pressure) in rabbit model of spinal cord ischemia; type: in vivo, New Zealand White rabbits
Description: Twenty-six male New Zealand White rabbits weighting 2.2 to 3.0 kg were used in this experiment. Spinal cord ischemia was induced by occluding the abdominal aorta with […] for 20 minutes just distal to the renal arteries. Surgical preparation was conducted according to the method described in the literature, Terada H. et. al., J. Thorac. Cardiovasc. Surg. 2001; 122: 979-85. A 24-gauge venous catheter was placed in the marginal ear vein for drug administration. The rabbits were anesthetized with intravenous sodium pentobarbital (25 mg/kg) and allowed to breathe spontaneously. Lidocaine (0.5%) was administered at the site of the skin incision as local anesthesia. The left common carotid artery was cannulated with a 24-gauge catheter for monitoring the arterial pressure. Core body temperature was continuously monitored with a rectal probe and was maintained at 38.5° C. with the aid of heating lamp. The infrarenal abdominal aorta was exposed through a transperitoneal approach. After systemic heparinization (200 U/kg), spinal cord ischemia was induced by occluding the abdominal aorta with […] for 20 minutes just distal to the renal arteries and just above the aortic bifurcation. Then, the […] released, and the flank was closed. […] The rabbits were assigned randomly to 1 of the 4 groups and subjected to the treatment of (1) above in the following manner. The sham group (n=3) underwent the same operation without aortic occlusion. The control group (n=7) received saline (1 ml) intravenously 15 minutes before aortic occlusion. NS-7 (1 mg/kg) was administered intravenously as a bolus dose 15 minutes before aortic occlusion in group A (n=8) or just after releasing the […] onset of reperfusion) in group B (n=8). All the animals survived the entire observation period. Body weight, rectal temperature, and mean arterial blood pressure values at baseline, 10 minutes after ischemia, and 10 minutes after reperfusion are shown in Table 1. There were no significant differences in the weights of the animals.

[3] = Group A (NS-7 1 mg/kg i.v. 15 min before aortic occlusion), Baseline
[4] = Group A (NS-7 1 mg/kg i.v. 15 min before aortic occlusion), Ischemia, 10 min
[5] = Group A (NS-7 1 mg/kg i.v. 15 min before aortic occlusion), Reperfusion, 10 min
[6] = Group B (NS-7 1 mg/kg i.v. at onset of reperfusion), Baseline
[7] = Group B (NS-7 1 mg/kg i.v. at onset of reperfusion), Ischemia, 10 min
[8] = Group B (NS-7 1 mg/kg i.v. at onset of reperfusion), Reperfusion, 10 min

Cc1cc(-c2ccc(F)cc2)cc(OCCCCCN2CCCCC2)n1.Cl [NS-7, 4-(4-Fluorophenyl)-2-methyl-6-(5-piperidinopentyloxy)pyridine hydrochloride]
Infarct size as a percentage of the area of the whole gray matter ([1]; NS-7 1 mg/kg i.v. at the onset of reperfusion (group B)): 12.1±12.8%
Infarct size as a percentage of the area of the whole gray matter ([1]; NS-7 1 mg/kg i.v. injected before ischemia (group A)): 14.0±14.3%
Gray matter infarction in TTC-stained sections (FIG. 1) ([1]; NS-7 before ischemia or at the onset of reperfusion, mid lumbar level): Minimal gray matter infarction
MAP (mean arterial blood pressure) [2, 3]: 83 ± 5 mmHg
Rectal Temp. [2, 3]: 38.4 ± 0.7 °C
MAP (mean arterial blood pressure) [2, 4]: 85 ± 5 mmHg
Rectal Temp. [2, 4]: 38.1 ± 0.4 °C
MAP (mean arterial blood pressure) [2, 5]: 78 ± 10 mmHg
Rectal Temp. [2, 5]: 38.1 ± 0.2 °C
MAP (mean arterial blood pressure) [2, 6]: 91 ± 6 mmHg
Rectal Temp. [2, 6]: 38.5 ± 0.4 °C
MAP (mean arterial blood pressure) [2, 7]: 86 ± 7 mmHg
Rectal Temp. [2, 7]: 38.4 ± 0.5 °C
MAP (mean arterial blood pressure) [2, 8]: 81 ± 8 mmHg
Rectal Temp. [2, 8]: 38.6 ± 0.5 °C
